Laboratory results taken from the supplement of paper PMC10307832.

Legend:
Test in all cases: relative viability (nuclei count vs DMSO), 5 days (fraction); higher = more cells survive
Vemurafenib + Trametinib = compound: CCCS(=O)(=O)Nc1ccc(F)c(C(=O)c2c[nH]c3ncc(-c4ccc(Cl)cc4)cc23)c1F [Vemurafenib] + CC(=O)Nc1cccc(-n2c(=O)n(C3CC3)c(=O)c3c(Nc4ccc(I)cc4F)n(C)c(=O)c(C)c32)c1 [Trametinib] (partner 0.02 µM)
How it was run: (§1)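 After 5 days of treatment, lung cancer cells in 1536-well plates were fixed and stained in a single step (final 0.05% Triton X-100, 1% formaldehyde, 1 ug/ml Hoechst) and their nuclei counted on 4× images. Treatment had been applied by pin tool the day after seeding as one drug alone or as a fixed anchor-drug dose with five library-drug doses (not always all listed) in √10 steps. Relative viability is the nuclei count of treated wells divided by that of vehicle wells, and values are medians of duplicate plates.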

OSI-027 + Bortezomib = compound: COc1cccc2cc(-c3nc([C@H]4CC[C@H](C(=O)O)CC4)n4ncnc(N)c34)[nH]c12 [OSI-027] + CC(C)C[C@H](NC(=O)[C@H](Cc1ccccc1)NC(=O)c1cnccn1)B(O)O [Bortezomib] (partner 0.002 µM)
How it was run: as §1

OSI-027 + Olaparib = compound: COc1cccc2cc(-c3nc([C@H]4CC[C@H](C(=O)O)CC4)n4ncnc(N)c34)[nH]c12 [OSI-027] + O=C(c1cc(Cc2n[nH]c(=O)c3ccccc23)ccc1F)N1CCN(C(=O)C2CC2)CC1 [Olaparib] (partner 8 µM)
How it was run: as §1

OSI-027 + Trametinib = compound: COc1cccc2cc(-c3nc([C@H]4CC[C@H](C(=O)O)CC4)n4ncnc(N)c34)[nH]c12 [OSI-027] + CC(=O)Nc1cccc(-n2c(=O)n(C3CC3)c(=O)c3c(Nc4ccc(I)cc4F)n(C)c(=O)c(C)c32)c1 [Trametinib] (partner 0.02 µM)
How it was run: as §1

For UMC-11, which relative viability (Vemurafenib + Trametinib; first compound 0.03162 µM) is on record?
The relative viability was 0.657.

And the relative viability (Vemurafenib + Trametinib; first compound 0.1 µM)?
The relative viability was 0.756.

And the relative viability (Vemurafenib + Trametinib; first compound 0.3162 µM)?
Its relative viability is 0.475.

And the relative viability (Vemurafenib + Trametinib; first compound 1 µM)?
The relative viability was 0.355.

What about the relative viability (OSI-027 + Bortezomib; first compound 0.01 µM) of the same cell line?
The relative viability was 0.565.

What about the relative viability (OSI-027 + Bortezomib; first compound 0.03162 µM) of the same cell line?
Its relative viability is 0.646.

And the relative viability (OSI-027 + Bortezomib; first compound 0.1 µM)?
Its relative viability is 0.696.

And the relative viability (OSI-027 + Bortezomib; first compound 0.3162 µM)?
Its relative viability is 0.668.

And the relative viability (OSI-027 + Bortezomib; first compound 1 µM)?
The relative viability was 0.503.

What about the relative viability (OSI-027 + Olaparib; first compound 0.01 µM) of the same cell line?
Its relative viability is 0.388.

And the relative viability (OSI-027 + Olaparib; first compound 0.03162 µM)?
The relative viability was 0.42.

What about the relative viability (OSI-027 + Olaparib; first compound 0.1 µM) of the same cell line?
The relative viability was 0.31.

And the relative viability (OSI-027 + Olaparib; first compound 0.3162 µM)?
The relative viability was 0.349.

What about the relative viability (OSI-027 + Olaparib; first compound 1 µM) of the same cell line?
The relative viability was 0.291.

What about the relative viability (OSI-027 + Trametinib; first compound 0.01 µM) of the same cell line?
The relative viability was 0.727.

And the relative viability (OSI-027 + Trametinib; first compound 0.03162 µM)?
The relative viability was 0.772.

And the relative viability (OSI-027 + Trametinib; first compound 0.1 µM)?
Its relative viability is 0.579.

What about the relative viability (OSI-027 + Trametinib; first compound 0.3162 µM) of the same cell line?
Its relative viability is 0.472.

And the relative viability (OSI-027 + Trametinib; first compound 1 µM)?
The relative viability was 0.392.
